Data on 25 molecules can be found in patent US8691818B2, “Cyclic triazo and diazo sodium channel blockers” (University Of Greenwich, priority 2008, dated 2014).

One data set relates to Sodium Channel, Site 2. In kind it is binding, Wistar Rat. The note with it: for IC50: read-out: [3H]BTX-B binding Extrapolated IC50.
Data set [1] has as its target T1, DiHydroFolate Reductase (DHFR) (Rattus norvegicus, UniProt Q920D2).
T1 construct: from tissue; host or cells: rat liver homogenate supernatant
T1 sequence (Q920D2 1-187): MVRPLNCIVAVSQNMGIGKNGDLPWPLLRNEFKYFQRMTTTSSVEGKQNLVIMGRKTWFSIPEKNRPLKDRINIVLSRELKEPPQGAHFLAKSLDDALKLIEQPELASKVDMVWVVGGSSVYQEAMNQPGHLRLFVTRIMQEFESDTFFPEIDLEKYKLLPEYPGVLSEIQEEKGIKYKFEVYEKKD
The data set is described as follows: Inhibition of binding of [3H]methotrexate to rat liver homogenate supernatant. Particulars: for inhibition at 125 µM: read-out: [3H]mtx binding (% inhibition @ 125 μM). In a few lines:
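Displacement of [3H]methotrexate binding to rat liver homogenate supernatant, prepared at 4 °C in pH 6.0 phosphate buffer with 15 mM dithiothreitol. Values are mean±sem over the number of experiments shown.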

Another data set addresses hERG (Homo sapiens, UniProt Q12809). The data set can be described thus: hERG: inhibition of binding of [3H]astemizole to HEK-293 cells expressing human recombinant hERG. Particulars: for inhibition at 10 µM: human, probe [3H]astemizole; for hERG % inhibition @ 10 μM: [3H]astemizole binding.
For a further data set, the system named is sodium channel. The data set is described as follows: [14C]guanidine flux: veratrine-evoked uptake of [14C]guanidine into rat forebrain synaptosomes (primary sodium channel assay). In kind it is biochemical. Particulars: 30° for 2½ min. In a few lines:
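Synaptosomal fraction from male Wistar rat forebrain (without cerebellum/medulla), 20-25 mg wet weight/ml. Veratrine-evoked [14C]guanidine uptake at 30° for 2½ min across a compound concentration range; IC50 from concentration-effect curves, mean±sem.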

[2] abbreviates: read-out: hERG IC50 (μM) (extrapolated from 10 μM inh'n), extrapolated assuming binding slope 1.0.

Read-outs that look alike come from different tables or passages of the source.

Chain of hERG (Q12809 whole entry): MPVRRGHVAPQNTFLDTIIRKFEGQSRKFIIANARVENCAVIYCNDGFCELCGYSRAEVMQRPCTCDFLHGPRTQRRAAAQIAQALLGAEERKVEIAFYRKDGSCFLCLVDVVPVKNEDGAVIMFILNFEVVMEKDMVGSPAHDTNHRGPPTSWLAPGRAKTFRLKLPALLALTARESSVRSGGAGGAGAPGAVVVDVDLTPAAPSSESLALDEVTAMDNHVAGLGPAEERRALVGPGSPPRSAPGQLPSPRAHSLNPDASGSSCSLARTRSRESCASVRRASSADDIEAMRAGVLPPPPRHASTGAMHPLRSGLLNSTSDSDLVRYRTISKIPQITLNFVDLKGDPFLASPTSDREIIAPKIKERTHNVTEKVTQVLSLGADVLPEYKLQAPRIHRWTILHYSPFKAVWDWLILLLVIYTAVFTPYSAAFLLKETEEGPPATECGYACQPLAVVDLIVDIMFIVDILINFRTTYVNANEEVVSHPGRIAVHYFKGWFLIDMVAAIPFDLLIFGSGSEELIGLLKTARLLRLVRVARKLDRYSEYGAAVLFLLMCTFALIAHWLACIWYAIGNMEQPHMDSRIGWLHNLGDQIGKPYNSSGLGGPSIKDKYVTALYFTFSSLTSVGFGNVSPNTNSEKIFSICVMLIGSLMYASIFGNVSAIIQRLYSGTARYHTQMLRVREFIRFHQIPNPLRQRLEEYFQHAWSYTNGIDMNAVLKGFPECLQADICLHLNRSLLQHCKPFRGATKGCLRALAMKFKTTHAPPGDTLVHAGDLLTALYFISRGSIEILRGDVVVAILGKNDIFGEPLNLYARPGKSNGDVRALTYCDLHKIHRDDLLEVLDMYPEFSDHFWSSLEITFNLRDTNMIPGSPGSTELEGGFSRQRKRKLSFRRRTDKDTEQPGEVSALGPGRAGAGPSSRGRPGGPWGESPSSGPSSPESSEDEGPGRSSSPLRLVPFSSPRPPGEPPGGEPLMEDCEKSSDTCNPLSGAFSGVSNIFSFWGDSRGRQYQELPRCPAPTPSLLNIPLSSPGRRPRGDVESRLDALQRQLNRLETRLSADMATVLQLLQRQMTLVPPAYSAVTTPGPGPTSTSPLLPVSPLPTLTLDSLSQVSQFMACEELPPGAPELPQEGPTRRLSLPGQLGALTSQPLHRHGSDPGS

As to `N=c1nc(N)c(-c2cc(C(F)(F)F)cc(Cl)c2F)nn1CC(F)(F)C(F)F.O=S(=O)(O)C(F)(F)F` [CEN-210, 5(3)-Amino-6-(3-chloro-2-fluoro-5-trifluoromethyphenyl)-2,3(2,5)-dihydro-3(5)-imino-2-(2,2,3,3-tetrafluoropropyl)-1,2,4-triazine trifluoromethanesulphonate], in the data set on Sodium Channel, Site 2, the “[3H]BTX-B binding % inhibition (@ 10 μM)” value turned out to be 43% and the IC50 was 13 µM.

On to `CC(C)C(c1ccccc1)c1nnc(N)nc1N` (stereo not drawn) [CEN-201, 3,5-Diamino-6-(1-isopropyl-1-phenylmethy)-1,2,4-triazine], for which, in the data set with Sodium Channel, Site 2, the “[3H]BTX-B binding % inhibition (@ 10 μM)” value is 3% and the IC50 is greater than 200 µM.

Take `Nc1nnc(-c2cccc3c2-c2ccccc2C3)c(N)n1` [CEN-129]: the melting point lay within 240 to 242 °C. Also, in data set [1] (125 μM), the inhibition at 125 µM is -3%. At hERG, the concentration for half-maximal inhibition (IC50) worked out at 133 µM and the inhibition at 10 µM came out at 7%. For the same molecule, the IC50 in the data set on sodium channel amounted to 190 µM.

Regarding `Cn1nc(-c2ccccc2Oc2ccccc2)c(N)nc1=N` [CEN-105, 5(3)-Amino-6-(2-phenoxyphenyl)-2,3(2,5)-dihydro-3(5)-imino-2-methyl-1,2,4-triazine], the melting point lay within 164 to 166 °C. Further, the inhibition at 125 µM in data set [1] (125 μM) turned out to be 86%. For the same molecule, on hERG, the IC50 was 19 µM and the inhibition at 10 µM worked out at 35%. The same molecule displayed an IC50 with sodium channel of 100 µM.

Turning to `Cn1nc(-c2ccc3c(c2)OC(F)(F)O3)c(N)nc1=N` [CEN-81, 5(3)-Amino-6-[5-(2,2-difluorobenzodioxolo)]-dihydro-3(5)-imino-2-methyl-1,2,4-triazine], the melting point lay within 297 to 298 °C. For the same molecule, the inhibition at 125 µM in data set [1] (125 μM) is -2%. For the same molecule, at hERG, the IC50 was 49 µM and the inhibition at 10 µM amounted to 17%. The half-maximal inhibitory concentration (IC50) with sodium channel amounted to 251 µM.

Consider `COc1ccc(-c2nnc(N)nc2-c2ccc(OC)cc2)cc1` [CEN-127, 3-Amino-5,6-bis(4-methoxylphenyl)-1,2,4-triazine], for which the melting point was 179 to 181 °C. Besides, the inhibition at 125 µM in data set [1] (125 μM) is -24%. At hERG, the IC50 is greater than 200 µM and the inhibition at 10 µM came to 2%. Besides, the IC50 with sodium channel turned out to be 85.1 µM.

On to `Cn1nc(-c2ccc3ccccc3c2)c(N)nc1=N` [CEN-76, 5(3)-Amino-6-(2-naphthyl)-2,3(2,5)-dihydro-3(5)-imino-2-methyl-1,2,4-triazine methanesulfonate], for which, in data set [1] (125 μM), the inhibition at 125 µM was determined as 6%. At hERG, the IC50 came out at 4 µM and the inhibition at 10 µM turned out to be 74%. For the same molecule, the half-maximal inhibitory concentration (IC50) in the data set with sodium channel is 77.6 µM.

Molecule `Cn1nc(-c2cc(Cl)sc2Cl)c(N)nc1=N` [CEN-80, 5(3)-Amino-6-[3-(2,5-dichlorothienyl)]-2,3(2,5)-dihydro-3(5)-imino-2-methyl-1,2,4-triazine] displayed a melting point of 286 to 288 °C. Besides, the inhibition at 125 µM in data set [1] (125 μM) was -1%. At hERG, the IC50 came to 61 µM and the inhibition at 10 µM was found to be 14%. Moreover, the IC50 with sodium channel amounted to 123 µM.

Molecule `Cc1ccc(-c2nnc(N)nc2-c2ccc(C)cc2)cc1` [CEN-126, 3-Amino-5,6-bis(4-methylphenyl)-1,2,4-triazine] had a melting point of 134 to 136 °C. In data set [1] (125 μM), the inhibition at 125 µM was -12%. On hERG, the IC50 turned out to be 3 µM and the inhibition at 10 µM worked out at 79%. For the same molecule, the IC50 with sodium channel came to 58.9 µM.

Regarding `CCn1nc(-c2cc(C(C)(C)C)cc(C(C)(C)C)c2)c(N)nc1=N` [CEN-189, 5(3)-Amino-6-(3,5 bis-tert-butylphenyl)-2,3(2,5)-dihydro-3(5)-imino-2-ethyl-1,2,4-triazine methanesulphonate], the inhibition at 125 µM in data set [1] (125 μM) amounted to 2%. For the same molecule, the values for the half-maximal inhibitory concentration (IC50) at hERG and in the data set with sodium channel were 90 µM and 468 µM, respectively. Besides, at hERG, the inhibition at 10 µM came to 10%.

In the case of `Cn1nc(-c2cccc(C(F)(F)F)c2Cl)c(N)nc1=N` [CEN-177, 5(3)-Amino-6-(2-chloro-3-trifluoromethyphenyl)-2,3(2,5)-dihydro-3(5)-imino-2-methyl-1,2,4-triazine], the melting point lay within 205 to 207 °C. For the same molecule, the inhibition at 125 µM in data set [1] (125 μM) came out at 16%. For the same molecule, at hERG, the IC50 was found to be 35 µM and the inhibition at 10 µM was determined as 22%. The same molecule had an IC50 in the data set with sodium channel of 14 µM.

As for `Cn1nc(-c2cccc3c2CCCC3)c(N)nc1=N` [CEN-120, 5(3)-Amino-6-[1-(5,6,7,8-tetrahydronaphthyl)]-2,3(2,5)-dihydro-3(5)-imino-2-methyl-1,2,4-triazine methanesulfonate], the inhibition at 125 µM in data set [1] (125 μM) worked out at 18%. For the same molecule, at hERG, the IC50 was 157 µM and the inhibition at 10 µM stood at 6%. In the data set on sodium channel, this molecule gave an IC50 of 195 µM.

As to `CCn1nc(-c2cccs2)c(N)nc1=N` [CEN-62, 5(3)-Amino-6-(2-thienyl)-2,3(2,5)-dihydro-3(5)-imino-2-ethyl-1,2,4-triazine methanesulfonate], the inhibition at 125 µM in data set [1] (125 μM) was 46%. On hERG, the IC50 was greater than 200 µM and the inhibition at 10 µM is -13%. The molecule also had an IC50 in the data set on sodium channel of 141 µM.

`Nc1nnc(C2c3ccccc3Oc3ccccc32)c(N)n1` [CEN-182, 3,5-Diamino-6-(9-xanthyl)-1,2,4-triazine]: the melting point was in the range of 159 to 161 °C. Moreover, the inhibition at 125 µM in data set [1] (125 μM) amounted to 6%. Besides, at hERG, the concentration for half-maximal inhibition (IC50) was determined as 90 µM and the inhibition at 10 µM is 10%. The molecule further returned an IC50 in the data set with sodium channel of 214 µM.

`Nc1nnc2c3ccccc3c3ccccc3c2n1` [CEN-128]: the inhibition at 125 µM in data set [1] was 0%. For the same molecule, on hERG, the IC50 was determined as 53 µM and the inhibition at 10 µM is 16%. In the data set with sodium channel, this molecule gave a 50% inhibitory concentration (IC50) of 251 µM.

Consider `CCn1nc(-c2ccc3ccccc3c2)c(N)nc1=N` [CEN-75, 5(3)-Amino-6-(2-naphthyl)-2,3(2,5)-dihydro-3(5)-imino-2-ethyl-1,2,4-triazine methanesulfonate], for which, in data set [1] (125 μM), the inhibition at 125 µM is 5%. For the same molecule, on hERG, the IC50 is 3 µM and the inhibition at 10 µM was found to be 78%. Also, half-maximal inhibition in the data set with sodium channel (IC50) required 49 µM.

On to `Cn1nc(-c2cccc3ccccc23)c(N)nc1=N` [CEN-78, 5(3)-Amino-6-(1-naphthyl)-2,3(2,5)-dihydro-3(5)-imino-2-methyl-1,2,4-triazine], for which the melting point fell in the range of 248 to 250 °C. The inhibition at 125 µM in data set [1] (125 μM) amounted to 9%. Besides, on hERG, the IC50 worked out at 32 µM and the inhibition at 10 µM amounted to 24%. The same molecule showed a concentration for half-maximal inhibition (IC50) in the data set with sodium channel of 102 µM.

In turn, `Nc1ncc(-c2cccc(Cl)c2Cl)c(N)n1` [CEN-41, 2,4-Diamino-5-(2,3-dichlorophenyl)pyrimidine] returned a melting point of 289 to 291 °C. For the same molecule, in data set [1] (125 μM), the inhibition at 125 µM worked out at 76%. For the same molecule, on hERG, the IC50 was greater than 200 µM and the inhibition at 10 µM was -3%. The molecule further yielded an IC50 with sodium channel of 60.3 µM.

On to `CCn1nc(-c2cccc3ccccc23)c(N)nc1=N` [CEN-77, 5(3)-Amino-6-(1-naphthyl)-2,3(2,5)-dihydro-3(5)-imino-2-ethyl-1,2,4-triazine], for which the melting point lay within 191 to 193 °C. Also, in data set [1] (125 μM), the inhibition at 125 µM was -1%. Also, on hERG, the concentration for half-maximal inhibition (IC50) amounted to 18 µM and the inhibition at 10 µM amounted to 36%. Also, the half-inhibitory concentration (IC50) in the data set on sodium channel turned out to be 14.5 µM.

Turning to `Nc1nnc(-c2ccc(Cl)nc2Cl)c(N)n1` [CEN-174, 3,5-Diamino-6-[3-(2,6-dichloropyidyl)]-1,2,4-triazine], the inhibition at 125 µM in data set [1] (125 μM) worked out at 4%. The IC50 turned out to be 101 µM on hERG and 589 µM with sodium channel. In addition, the inhibition at 10 µM at hERG was 9%.

`Nc1nnc(-c2ccc(Oc3ccccc3)cc2)c(N)n1` [CEN-93, 3,5-Diamino-6-(4-phenoxphenyl)-1,2,4-triazine] displayed a melting point of 266 to 267 °C. Besides, the inhibition at 125 µM in data set [1] (125 μM) turned out to be 4%. Besides, on hERG, the IC50 was found to be 19 µM and the inhibition at 10 µM was determined as 35%. In the data set on sodium channel, the IC50 was 63.1 µM.

Regarding `COc1ccc2cc(C(C)c3nnc(N)nc3N)ccc2c1` (stereo not drawn) [CEN-165, 3,5-Diamino-6-[1-(6-methoxynaphthalene)ethy)-1,2,4-triazine], the “[3H]mtx binding (% inhibition @ 125 μM)” value in data set [1] (125 μM) is given as −4%. On hERG, the “hERG % inhibition @ 10 μM” value stood at 23%. For the same molecule, the IC50 at hERG (setting [2]) was 34 µM; in the data set with sodium channel it was 372 µM.

Take `Cn1nc(-c2cccc(-c3ccccc3)c2)c(N)nc1=N` [CEN-161, 5(3)-Amino-6-(3-biphenyl)-2,3(2,5)-dihydro-3(5)-imino-2-methyl-1,2,4-triazine methanesulfonate]: the inhibition at 125 µM in data set [1] (125 μM) was -7%. At hERG, the IC50 amounted to 1 µM and the inhibition at 10 µM was 88%. Also, the IC50 in the data set on sodium channel came out at 16 µM.

In the case of `CS(=O)(=O)O.Cn1nc(C23CC4CC(CC(C4)C2)C3)c(N)nc1=N` [CEN-100, 6-Adamantyl-5(3)-amino-2,3(2,5)-dihydro-3(5)-imino-2-methyl-1,2,4-triazine methanesulfonate], the “[3H]mtx binding (% inhibition @ 125 μM)” value in data set [1] (125 μM) came to 10%. Further, the “hERG % inhibition @ 10 μM” value on hERG was 30%. Further, the IC50 on hERG (setting [2]) is 23 µM; in the data set with sodium channel, 77.6 µM.

As for “3,5-Diamino-6-[1-(2,5-dimethoxynaphthyl)-1,2,4-triazine [CEN-157]”, in data set [1] (125 μM), the “[3H]mtx binding (% inhibition @ 125 μM)” value is −1%. Moreover, the “hERG % inhibition @ 10 μM” value at hERG is given as 6%. For the same molecule, the values for the IC50 on hERG (setting [2]) and with sodium channel were 157 µM and 204 µM, respectively.

By IC50 is commonly meant the concentration that gives 50% inhibition. As usually defined, the melting point is the temperature of the solid-liquid transition. The inhibition is the drop in the measured response relative to a control, in per cent.
